In ChEMBL document CHEMBL3045578, “Synthesis and study of the antidepressant activity of novel 4,5-dihydro-7-alkoxy(phenoxy)-tetrazolo[1,5-a]quinoline derivatives” (2012):
The source made the active and inactive calls. The rule behind the calls is not given here.

Legend:
Mus musculus [1] = experiment: Antidepressant activity in Mus musculus Kunming (mouse) assessed as immobility time at 40 mg/kg, po administered 30 min prior to testing measured for 6 min by forced swimming test (reference value: 177.67 +/- 10.88 secs); type: functional
Mus musculus [2] = experiment: Antidepressant activity in Mus musculus Kunming (mouse) assessed as decrease in immobility time at 40 mg/kg, po administered 30 min prior to testing measured for 6 min by tail suspension test (reference value: 110.67 +/- 11.52 secs); type: functional

Q: What does the source list for `CCOc1ccc2c(c1)CCc1nnnn1-2`?
A: Time (Mus musculus [1]): 179.83 s; Time (Mus musculus [2]): 108.17 s

Q: With `Clc1ccccc1COc1ccc2c(c1)CCc1nnnn1-2` as the compound, how does the Time (Mus musculus [1]) read?
A: 65.17 s

Q: What about the Time (Mus musculus [2]) of the same compound?
A: 20 s

Q: `Cc1ccc(COc2ccc3c(c2)CCc2nnnn2-3)cc1` was tested. Which Time (Mus musculus [1]) did it give?
A: 65.17 s

Q: `c1ccc(COc2ccc3c(c2)CCc2nnnn2-3)cc1` was tested. Which Time (Mus musculus [1]) did it give?
A: 95.17 s

Q: What about the Time (Mus musculus [2]) of the same compound?
A: 20 s

Q: With `CCCCCCOc1ccc2c(c1)CCc1nnnn1-2` as the compound, how does the Time (Mus musculus [1]) read?
A: 133.5 s

Q: With `Clc1ccc(COc2ccc3c(c2)CCc2nnnn2-3)cc1` as the compound, how does the Time (Mus musculus [2]) read?
A: 20 s

Q: How did the Time (Mus musculus [2]) turn out when `CCCCOc1ccc2c(c1)CCc1nnnn1-2` was run?
A: 20 s

Q: Which Time (Mus musculus [1]) does the source give for `CCCCCOc1ccc2c(c1)CCc1nnnn1-2` here?
A: 135.67 s

Q: What about the Time (Mus musculus [2]) of the same compound?
A: 20 s

Q: With `Clc1cccc(COc2ccc3c(c2)CCc2nnnn2-3)c1` as the compound, how does the Time (Mus musculus [1]) read?
A: 65.17 s

Q: Which results are given for `COc1ccc(COc2ccc3c(c2)CCc2nnnn2-3)cc1`?
A: Time (Mus musculus [1]): 65.17 s; Time (Mus musculus [2]): 20 s

Q: Which results are given for `CNCCC(Oc1ccc(C(F)(F)F)cc1)c1ccccc1` (configuration not stated) [FLUOXETINE]?
A: Time (Mus musculus [1]): 93.17 s; Activity (Mus musculus [2]): Active

Q: For `Fc1ccccc1COc1ccc2c(c1)CCc1nnnn1-2`, which Time (Mus musculus [2]) is on record?
A: 20 s

Q: With `Fc1ccc(COc2ccc3c(c2)CCc2nnnn2-3)cc1` as the compound, how does the Time (Mus musculus [1]) read?
A: 65.17 s

Q: With `Brc1cccc(COc2ccc3c(c2)CCc2nnnn2-3)c1` as the compound, how does the Time (Mus musculus [2]) read?
A: 20 s

Q: How did the Time (Mus musculus [1]) turn out when `Nc1ccc(COc2ccc3c(c2)CCc2nnnn2-3)cc1` was run?
A: 178 s

Q: And the Time (Mus musculus [2])?
A: 98.5 s

Q: For `CCCCCCCOc1ccc2c(c1)CCc1nnnn1-2`, which Time (Mus musculus [1]) is on record?
A: 170.5 s

Q: And the Time (Mus musculus [2])?
A: 20 s

Q: Which results are given for `Fc1cccc(COc2ccc3c(c2)CCc2nnnn2-3)c1`?
A: Time (Mus musculus [1]): 65.17 s; Time (Mus musculus [2]): 20 s

Q: What does the source list for `Brc1ccccc1COc1ccc2c(c1)CCc1nnnn1-2`?
A: Time (Mus musculus [1]): 65.17 s; Time (Mus musculus [2]): 20 s

Q: Which Time (Mus musculus [1]) does the source give for `CCCCCCCCOc1ccc2c(c1)CCc1nnnn1-2` here?
A: 172.83 s

Q: And the Time (Mus musculus [2])?
A: 107.5 s

Q: Which results are given for `CCCOc1ccc2c(c1)CCc1nnnn1-2`?
A: Time (Mus musculus [1]): 181.5 s; Time (Mus musculus [2]): 93 s
